Source: patent publication US20250090510A1, “eIF4G1-eIF1 INHIBITORS AND USE THEREOF” (YEDA RESEARCH AND DEVELOPMENT CO. LTD., priority 2022, published 2025)

System: near cognate start codon initiation in HEK293T cells
Assay: Firefly luciferase reporter with AUG or near cognate start codons
Format: cell-based, human
Settings: 5 μM, 16 h
Protocol: FIGS. 4A-L: The effect eIF1-eIF4G1 inhibition by i14G1-10 or i14G1-12 on global translation is linked to start codon stringency. (4A) HEK293T cells were treated with DMSO, i14G1-10 (20 μM), and i14G-20 (10 μM) for 3 h and then ribosome foot printing libraries were prepared, sequenced and analyzed as described in the scheme. The presented graphs show meta-gene analysis of the distribution of normalized reads in the coding region (CDS) and 5′UTR of all analyzed genes in DMSO (black), i14G1-10 (blue), and i14G1-12 (red). […] (4F) The translation efficiency of eIF1 in DMSO, i14G1-10 and i14G1-12 samples calculated from the Ribo-seq data. […] (4J) Scatter plots showing the translation efficiencies correlations (R2 >0.9) of all analyzed genes between the two independent replicate experiments with DMSO (vehicle control) (top), i14G1-10 (middle), and i14G1-12 (bottom). (4K) Scatter plots showing the translation efficiencies correlations between 5′UTR and CDS (Pearson's r >0.5) of all analyzed genes of two independent replicate experiments with i14G1-10 (left) and i14G1-12 (right).
Reporter assays. […] The luminescence was measured on Turner Biosystems Luminometer.
Next, the sequence context of the translation initiation site (TIS) in the ribosome footprints of the 5′UTR in DMSO, i14G1-10 or i14G1-12 samples was determined. To assign the 5′UTR TISs, the Hrr+CHX reads were used (see Materials and Methods). […]

SMILES	near cognate start codon reporter activities relative to AUG
O=C(/C=C/Sc1ccc(C(F)(F)F)cn1)c1ccccc1 [i14G1-10]	significantly enhanced the activities of ACG, CUG, GUG, and UUG relative to AUG
Cn1ccnc1S/C(=C/C=C(C#N)C#N)c1ccc(Cl)cc1 [i14G1-12]	significantly enhanced the activities of ACG, CUG, GUG, and UUG relative to AUG
